{
  "source": "paper PMC10479830",
  "about": "“Nucleoside analogs NM107 and AT-527 are antiviral against rubella virus” (PNAS Nexus, 2023)",
  "key": {"rubella RA27/3 virus": {"tested_on": "rubella RA27/3 virus", "test": "microbe, parasite or virus in culture", "type": "cell-based", "conditions": "A549 cells; for activity against rubella in A549 cells: dose-response; for inhibition of infection in primary screen: 1 µM, compared with vehicle alone", "excerpt": "(§1) We developed a high-throughput, high-content, cell-based assay to monitor rubella virus infection of the human respiratory cell line A549, as the respiratory tract is infected in humans. […] We infected A549 cells with the rubella virus vaccine strain (RA27/3) and monitored infection using an antibody to the viral glycoprotein E1 (Fig. 1A) ([13]). […] To evaluate the utility of nanchangmycin as a positive control for our assay development, we performed a dose–response assay for nanchangmycin using automated fluorescent microscopy to quantify the cell number as a surrogate for cell viability and percent infection (Fig. 1A).\nA549 cells were plated in 384 well plates at 3,000 cells/well, HBMEC were plated at 7,000 cells/well, or Jeg-3 cells were plated at 3,000 cells/well in 20 μL growth media. The next day, 50 nL of drugs were added to assay wells, yielding a final concentration of 1 µM. The positive control nanchangmycin (n = 32) and the negative control DMSO (n = 32) were spotted on each assay plate. […] HBMECs were spin-infected by centrifuging at 1,250×g for 1 h at 25°C. Cells were fixed at 48 h post infection (hpi) in 4% formaldehyde/phosphate-buffered saline (PBS) for 15 min at room temperature and then washed twice with PBS. Cells were blocked with blocking buffer [2% bovine serum albumin in PBS with 0.1% Triton X-100 (PBST)]) for 1 h and incubated with primary antibody (mouse antirubella E1, CDC, 1 μg/mL) overnight at 4°C. […] Cells were washed three times with PBST and imaged using ImageXpress Micro (Molecular Devices). Cells were imaged with a 10× objective capturing four sites per well. The total number of cells and the percentage of infected cells were measured using the MetaXpress 5.3.3 cell scoring module. The aggregated percent infection of the DMSO and 2 µM nanchangmycin control wells on each assay plate were used to calculate Z′-factors. Sample well infection was normalized to aggregated DMSO plate control wells and expressed as percentage of control (POC = [%Infection sample/Average %Infection DMSO] × 100) and Z-score (Z = [%Infection sample − Average %Infection DMSO]/Standard Deviation %Infection DMSO) in Spotfire (PerkinElmer). Candidate hits were selected as compounds with POC <40% and viability >60%, compared with vehicle control.\n(§2) Drugs were purchased as powders from Selleckchem, MedchemExpress, and MedKoo and suspended in DMSO. Drugs were arrayed in 8-pt dose–response in 384 well plates. Infections were performed using the screening conditions. DMSO (n = 32) and 2 µM nanchangmycin (n = 16) were included on each validation plate as controls for normalization. Infection at each drug concentration was normalized to aggregated DMSO plate control wells and expressed as POC (POC = %Infection sample/Average %Infection DMSO cont). A nonlinear regression curve fit analysis (GraphPad Prism 8) was performed on POC infection and cell viability using log10 transformed concentration values to calculate IC50 values for infection and CC50 values for cell viability. SI was calculated as a ratio of the drug's CC50 and IC50 values (SI = CC50/IC50)."}, "A549 cells": {"tested_on": "A549 cells", "test": "cell number (cell viability) in A549 cells, Hoechst 33342, automated microscopy", "type": "cell-based, human", "conditions": "for cell viability in primary screen: 1 µM", "excerpt": "as §1\n(§3) A549 cells were plated in 384 well plates at 3,000 cells/well, HBMEC were plated at 7,000 cells/well, or Jeg-3 cells were plated at 3,000 cells/well in 20 μL growth media. The next day, 50 nL of drugs were added to assay wells, yielding a final concentration of 1 µM. The positive control nanchangmycin (n = 32) and the negative control DMSO (n = 32) were spotted on each assay plate. One hour later, cells were infected with rubella virus at a multiplicity of infection (MOI) = 0.234 for A549s, MOI = 0.1 for HBMEC, MOI = 0.05 for Jeg-3 cells). […] HBMECs were spin-infected by centrifuging at 1,250×g for 1 h at 25°C. Cells were fixed at 48 h post infection (hpi) in 4% formaldehyde/phosphate-buffered saline (PBS) for 15 min at room temperature and then washed twice with PBS. Cells were blocked with blocking buffer [2% bovine serum albumin in PBS with 0.1% Triton X-100 (PBST)]) for 1 h and incubated with primary antibody (mouse antirubella E1, CDC, 1 μg/mL) overnight at 4°C. Cells were washed three times with PBST and incubated in secondary (1:1000 antimouse Alexa Fluor 488 and 5 μg/mL Hoechst 33342) for 1 h at room temperature. Cells were washed three times with PBST and imaged using ImageXpress Micro (Molecular Devices). Cells were imaged with a 10× objective capturing four sites per well. The total number of cells and the percentage of infected cells were measured using the MetaXpress 5.3.3 cell scoring module. The aggregated percent infection of the DMSO and 2 µM nanchangmycin control wells on each assay plate were used to calculate Z′-factors. Sample well infection was normalized to aggregated DMSO plate control wells and expressed as percentage of control (POC = [%Infection sample/Average %Infection DMSO] × 100) and Z-score (Z = [%Infection sample − Average %Infection DMSO]/Standard Deviation %Infection DMSO) in Spotfire (PerkinElmer). Candidate hits were selected as compounds with POC <40% and viability >60%, compared with vehicle control.\nas §2"}, "rubella virus [1]": {"tested_on": "rubella virus", "test": "rubella virus infection of Jeg-3 cells, dose-response", "type": "cell-based", "conditions": "Jeg-3 cells, dose-response", "procedure": "Since rubella can cause congenital infections, we next developed assays in the human trophoblast cell line Jeg-3.\nas §3, §2"}, "rubella virus [2]": {"tested_on": "rubella virus", "test": "rubella virus infection of HBMEC, dose-response", "type": "cell-based", "conditions": "dose-response", "procedure": "Rubella virus can infect diverse tissues in vivo, and viruses can show tissue-specific dependencies on host factors. […] First, we developed assays in human brain microvascular endothelial cells (HBMECs) as a model for endothelial cells. We again used nanchangmycin to optimize the assay (Fig. 3A and B).\nas §3, §2"}},
  "note": "Read-outs that look alike come from different tables or passages of the source.",
  "data": [
    {"smiles": "N#Cc1c(Oc2ccc(F)c(NC(=O)Cc3cccc(C(F)(F)F)c3)c2)ccc2nc(NC(=O)C3CC3)sc12", "note": "[TAK-632]", "values": [
      {"measurement": "activity against rubella in A549 cells", "setting": "rubella RA27/3 virus", "result": "little activity"}
    ]},
    {"smiles": "CO[C@H]1CC[C@@H](O[C@H]2C[C@H]([C@]3(C)CC[C@]4(C[C@H](O)[C@@H](C)[C@@H]([C@@H](C)/C=C(\\C)C(=O)[C@H](C)C[C@H](C)C(=O)O)O4)O3)O[C@]3(O[C@@H]([C@H]4O[C@@](O)(CO)[C@H](C)C[C@@H]4C)C[C@@H]3C)[C@@H]2C)O[C@@H]1C", "note": "[nanchangmycin]", "values": [
      {"measurement": "CC50", "setting": "A549 cells; A549 cells, cell number, read-out: half-maximal cytotoxicity concentration (CC50)", "result": 3000, "unit": "nM"},
      {"measurement": "activity against rubella in Jeg-3 cells", "setting": "rubella virus [1]", "result": "active"},
      {"measurement": "IC50", "setting": "rubella RA27/3 virus; 48 hpi, read-out: half-maximal inhibitory concentration (IC50), rubella virus infection", "result": 30, "unit": "nM"},
      {"measurement": "EC50", "setting": "rubella RA27/3 virus; MOI = 0.2, 48 hpi, read-out: EC50 (printed in Fig. 1B)", "result": 30, "unit": "nM"}
    ]},
    {"smiles": "COc1c(C)c2c(c(O)c1C/C=C(\\C)CCC(=O)O)C(=O)OC2", "note": "[mycophenolic acid]", "values": [
      {"measurement": "toxicity in A549 cells", "setting": "A549 cells; human, 48 h", "result": "higher toxicity in A549 cells than in Jeg-3 cells"},
      {"measurement": "activity against rubella in Jeg-3 cells", "setting": "rubella virus [1]", "result": "active"},
      {"measurement": "activity against rubella in HBMEC", "setting": "rubella virus [2]", "result": "showed activity"},
      {"measurement": "selectivity index (SI = CC50/IC50)", "setting": "rubella RA27/3 virus", "result": 6}
    ]},
    {"smiles": "COC1=CC(c2cc3ccccc3[nH]2)=N/C1=C\\c1[nH]c(C)cc1C", "note": "[obatoclax]", "values": [
      {"measurement": "toxicity in A549 cells", "setting": "A549 cells", "result": "significant toxicities"},
      {"measurement": "activity against rubella in Jeg-3 cells", "setting": "rubella virus [1]", "result": "active"},
      {"measurement": "activity against rubella in HBMEC", "setting": "rubella virus [2]", "result": "showed activity"},
      {"measurement": "activity against rubella in A549 cells", "setting": "rubella RA27/3 virus", "result": "little activity"}
    ]},
    {"smiles": "CC1(C)CCC(c2ccc(Cl)cc2)=C(CN2CCN(c3ccc(C(=O)NS(=O)(=O)c4ccc(N[C@H](CCN5CCOCC5)CSc5ccccc5)c(S(=O)(=O)C(F)(F)F)c4)cc3)CC2)C1", "note": "[navitoclax]", "values": [
      {"measurement": "toxicity in A549 cells", "setting": "A549 cells", "result": "significant toxicities"},
      {"measurement": "activity against rubella in A549 cells", "setting": "rubella RA27/3 virus", "result": "little activity"}
    ]},
    {"smiles": "Cc1c(-c2ccc(N3CCc4cccc(C(=O)Nc5nc6ccccc6s5)c4C3)nc2C(=O)O)cnn1CC12CC3CC(CC(C3)C1)C2", "note": "[A-1331852]", "values": [
      {"measurement": "toxicity in A549 cells", "setting": "A549 cells", "result": "significant toxicities"},
      {"measurement": "activity against rubella in A549 cells", "setting": "rubella RA27/3 virus", "result": "little activity"}
    ]},
    {"smiles": "CCc1c(O)cc(O)c(C(=O)c2ccc(OCCN3CCOCC3)c(OC)c2)c1CC(=O)N(CCOC)CCOC.Cl", "note": "[KW-2478]", "values": [
      {"measurement": "cell viability in primary screen", "setting": "A549 cells", "result": "> 60", "unit": "%"},
      {"measurement": "inhibition of infection in primary screen", "setting": "rubella RA27/3 virus", "result": "> 60", "unit": "%"}
    ]},
    {"smiles": "Cc1cccc(/C=N/Nc2cc(N3CCOCC3)n3nc(-c4ccncc4)cc3n2)c1", "note": "[APY0201]", "values": [
      {"measurement": "activity against rubella in Jeg-3 cells", "setting": "rubella virus [1]", "result": "active"},
      {"measurement": "activity against rubella in HBMEC", "setting": "rubella virus [2]", "result": "showed activity"},
      {"measurement": "selectivity index (SI = CC50/IC50)", "setting": "rubella RA27/3 virus", "result": 102}
    ]},
    {"smiles": "Cc1cccc(/C=N/Nc2cc(N3CCOCC3)nc(OCCc3ccccn3)n2)c1", "note": "[apilimod]", "values": [
      {"measurement": "activity against rubella in Jeg-3 cells", "setting": "rubella virus [1]", "result": "active"},
      {"measurement": "activity against rubella in HBMEC", "setting": "rubella virus [2]", "result": "showed activity"},
      {"measurement": "selectivity index (SI = CC50/IC50)", "setting": "rubella RA27/3 virus", "result": "> 8"}
    ]},
    {"smiles": "CN1CCC(NC(=O)c2cc(-c3c(O)cc(O)cc3Oc3ccc([N+](=O)[O-])cc3)on2)CC1", "note": "[NMS-E973]", "values": [
      {"measurement": "inhibition of infection in primary screen", "setting": "rubella RA27/3 virus", "result": "> 60", "unit": "%"}
    ]},
    {"smiles": "C/C=C/C[C@@H](C)[C@@H](O)[C@H]1C(=O)N[C@@H](CC)C(=O)N(C)[C@H](C)C(=O)N(CC)[C@@H](C(C)C)C(=O)N[C@@H](C(C)C)C(=O)N(C)[C@@H](CC(C)C)C(=O)N[C@@H](C)C(=O)N[C@H](C)C(=O)N(C)[C@@H](CC(C)C)C(=O)N(C)[C@@H](CC(C)C)C(=O)N(C)[C@@H](C(C)C)C(=O)N1C", "note": "[alisporivir]", "values": [
      {"measurement": "activity against rubella in A549 cells", "setting": "rubella RA27/3 virus", "result": "little activity"}
    ]},
    {"smiles": "CN1CCN(S(=O)(=O)c2ccc(-c3cnc(N)c(C(=O)Nc4cccnc4)n3)cc2)CC1", "note": "[AZD2858]", "values": [
      {"measurement": "activity against rubella in A549 cells", "setting": "rubella RA27/3 virus", "result": "little activity"}
    ]},
    {"smiles": "Cn1cc(C2=C(c3cccc(N)c3)C(=O)NC2=O)c2ccccc21", "note": "[CP21R7]", "values": [
      {"measurement": "cell viability in primary screen", "setting": "A549 cells", "result": "> 60", "unit": "%"},
      {"measurement": "inhibition of infection in primary screen", "setting": "rubella RA27/3 virus", "result": "> 60", "unit": "%"}
    ]},
    {"smiles": "Cc1c[nH]c(-c2cnc(NCCNc3ccc(C#N)cn3)nc2-c2ccc(Cl)cc2Cl)n1", "note": "[CHIR99021]", "values": [
      {"measurement": "activity against rubella in A549 cells", "setting": "rubella RA27/3 virus", "result": "little activity"}
    ]}
  ]
}
